{"source": "patent US20220098228A1", "about": "“METHODS AND COMPOSITIONS FOR IMPROVING THE IMMUNE SYSTEM AND PROVIDING IMMUNO-PROTECTION” (Natreon, Inc., priority 2020, published 2022)", "key": {"[1]": {"tested_on": "peritoneal macrophages", "test": "Peritoneal macrophage viability, trypan blue exclusion (Example III)", "assay_type": "in vivo, Swiss albino mice", "procedure": "(§1) Male and female Swiss albino mice (n=8; 4 from each gender) weighing approximately 25±5 g, were obtained from National Research Institute of Ayurveda for Drug Development (Govt. of India), Kolkata, and were housed in polypropylene cages at 22±3° C., relative air humidity of 45 to 55%, with 12.00 h light & dark cycle (lighting on from 6:00 AM to 6:00 PM). […] The mice were acclimatized for one week in the laboratory conditions, before being used in the experiment. All experiments were conducted between 10.00 h and 14.00 h. Principles of laboratory animal care (NIH publication no. 85-23, revised 1985) was followed.\n(§2) Cyclophosphamide was dissolved in distilled water and the mice were administered a single exposure (250 mg/kg, i.p.) on day 1.\n(§3) 3-OH-DBP, 3,8-(OH)2-DBP, and combined 3-OH-DBP+3,8-(OH)2-DBP were administered once daily for 7 days starting from day 1. Following 7 days of treatment the mice were anaesthetized and sacrificed under anaesthesia followed by collection of peritoneal macrophages and spleen (for splenocyte isolation).\n(§4) Swiss albino mice were randomly divided into 8 Groups (n=8; 4 from each gender). […] (2:10) (12 mg/kg b.w., p.o.), Group VI mice were administered 3-OH-DBP (10 mg/kg b.w., p.o.), Group VII mice were administered 3,8-(OH)2-DBP (50 mg/kg b.w., p.o.), Group VIII mice were administered [3-OH-DBP+3,8-(OH)2-DBP] (10:50) (60 mg/kg b.w., p.o.).\n(§5) All the animals were sacrificed under ether anesthesia and peritoneal macrophages were lavaged using ice cold phosphate buffer saline (PBS: 0.15 M NaCl; pH: 7.4). After centrifugation (3000 rpm×10 min) at 4° C., pellets were re-suspended in PBS and cell viability was confirmed by trypan blue exclusion assay.\n(§6) Results were expressed in terms of mean±SEM (n=8; 4 from each gender). Data were subjected to one way ANOVA followed by Tukey's test using GraphPad Prism 4.0 software to establish statistical significance (*p<0.05, **p<0.01, ***p<0.001, where * refers to comparison with Group I vehicle control; #p<0.05, ##p<0.01, ###p<0.001, where #refers to comparison with Group II cyclophosphamide administration; ^ap<0.05, ^aap<0.01, ^aap<0.01, where a refers to comparison of Day 7 with Day 0)."}, "[2]": {"conditions": "mouse, in vivo", "procedure": "as §1, §2, §3, §4, §6"}, "[3]": {"tested_on": "splenocytes", "test": "Cell viability of splenocytes, trypan blue exclusion, cyclophosphamide-induced immunosuppression (Example II)", "assay_type": "in vivo, Swiss albino mice", "conditions": "10 mg/kg body weight p.o. 7 days + cyclophosphamide 250 mg/kg i.p.; Mean ± SD, n = 6", "procedure": "(§7) The mice were acclimatized for one week in the laboratory conditions, before being used in the experiment. All experiments were conducted between 10.00 hr and 14.00 hr. Principles of laboratory animal care (NIH publication no. 85-23, revised 1985) were followed.\n(§8) All test compounds (DBPs and DBP glycosides) were suspended in 0.3% of CMC (Carboxymethyl Cellulose) solutions of distilled water and were administered orally for 7 days by using an intubation canula. The volume of dose was 100 μl/10 g body weight. Cyclophosphamide was dissolved in distilled water and was injected (250 mg/kg, i.p.) on day one and volume of dose was 100 μl/10 g body weight. Control animals received equivalent volume of the vehicles CMC (0.3%) solutions only.\nSpleen was collected. Single cell suspension was prepared by mincing and tapping the spleen fragments on stainless steel 200-mesh in ice cold phosphate buffer saline (PBS: 0.15M NaCl pH 7.4). Cell suspension was centrifuged at 2000 rpm for 10 minutes. The pellet was re-suspended in PBS and cell viability was confirmed by trypan blue exclusion method."}, "[4]": {"tested_on": "peritoneal macrophages", "test": "NBT reduction of peritoneal macrophages (Example III)", "assay_type": "in vivo, Swiss albino mice", "conditions": "for NBT reduction compared with cyclophosphamide treated mice: 3,8-(OH)2-DBP 50 mg/kg, combined 12 and 60 mg/kg; for NBT reduction compared with vehicle control: cyclophosphamide, 3-OH-DBP 2 and 10 mg/kg, combined 12 mg/kg", "procedure": "as §1, §2, §3, §4, §5\nPreparation of NBT solution: 0.2% NBT (nitroblue tetrazolium) in PBS (pH 7.4), 5% dextrose and HBSS. These three solutions were mixed in 6:2:4 ratios.\n0.5 ml of NBT solution was added to 0.5 ml of peritoneal macrophages (1×10^6 cells/ml) in micro-centrifuge tube. This mixture was incubated at 37° C. for 2 hours. The cell suspension was centrifuged at 2000 rpm for 10 minutes. Supernatants were discarded and pellets were re-suspended in 1 ml of DMSO. The tubes were kept in boiling water bath for 10 minutes and then cooled and centrifuged at 2000 rpm for 10 minutes. The supernatants were collected and absorbance was measured at 515 nm.\nas §6"}, "[5]": {"tested_on": "peritoneal macrophages", "test": "NBT reduction assay in peritoneal macrophages, cyclophosphamide-induced immunosuppression (Example II)", "assay_type": "in vivo, Swiss albino mice", "conditions": "10 mg/kg body weight p.o. 7 days + cyclophosphamide 250 mg/kg i.p.; Mean ± SD, n = 6", "procedure": "as §7, §8\nOn day seven all the animals were sacrificed under ether anesthesia and peritoneal macrophages were lavaged using ice cold phosphate buffer saline (PBS: 0.15M NaCl pH-7.4). After centrifugation (3000 rpm×10 min) at 4° C. the pellet was re-suspended in PBS and cell viability was confirmed by trypan blue exclusion method. (Bala A, Haldar P K, Kar B, Naskar S and Mazumder U K, “Carbon tetrachloride: A hepatotoxin causes oxidative stress in murine peritoneal macrophage and peripheral blood lymphocyte cells” Immunopharmacol. and Immunotoxicol. 34(1): 157-162 (2012)).\nPreparation of NBT solution: 0.2% NBT (nitroblue tetrazolium) in PB (Phosphate Buffer, pH 7.4), 5% dextrose and HBSS (Hank's balanced salt solution). The three solutions were mixed in 6:2:4 ratios. (Saxena A K, Singh K P, Srivastava S N, Shukla L J and Shanker R., “Immunomodulating effects of caffeine in rodents” Ind J Exptl Biol. 22: 298-301 (1984)).\nMethod: 0.5 ml of NBT solution was added to 0.5 ml of peritoneal macrophages (1×10^6 cells/ml) in a micro-centrifuge tube. This mixture was incubated at 37° C. for 45 minutes. The cell suspension was centrifuged at 1500 rpm for 10 minutes. Supernatant was discarded and pellet was re-suspended in 2 ml of DMSO. The tubes were kept in a boiling water bath for 10 minutes. The tubes were again centrifuged at 1500 rpm for 10 minutes. The supernatant was collected, and absorbance was measured at 515 nm."}, "[6]": {"tested_on": "splenocytes", "test": "Splenocyte viability, trypan blue exclusion (Example III)", "assay_type": "in vivo, Swiss albino mice", "conditions": "for % Viability Day7, splenocyte viability: Day 7", "procedure": "as §1, §2, §3, §4\nSpleens were collected and single cell suspension was prepared by mincing and tapping the spleen fragments on stainless steel 200-mesh in ice cold phosphate buffer saline (PBS: 0.15M NaCl; pH: 7.4). Cell suspensions were centrifuged at 2000 rpm for 10 minutes.\nas §6"}, "[7]": {"conditions": "female mice, 3-OH-DBP 2 and 10 mg/kg, 3,8-(OH)2-DBP 10 and 50 mg/kg, combined 12 and 60 mg/kg"}, "[8]": {"conditions": "female mice, 10 mg/kg p.o. + cyclophosphamide 250 mg/kg i.p."}, "[9]": {"conditions": "female mice, 50 mg/kg p.o. + cyclophosphamide 250 mg/kg i.p."}, "[10]": {"conditions": "male mice, 3-OH-DBP 10 mg/kg, 3,8-(OH)2-DBP 50 mg/kg, combined 60 mg/kg"}, "[11]": {"conditions": "male mice, 10 mg/kg p.o. + cyclophosphamide 250 mg/kg i.p."}, "[12]": {"conditions": "male mice, 50 mg/kg p.o. + cyclophosphamide 250 mg/kg i.p."}}, "note": "Marks after values point to notes of the source that are not given here.", "data": [{"smiles": "O=c1oc2cc(O)ccc2c2ccc(O)cc12", "note": "[3,8-(OH)2-DBP, 3,8-dihydroxy-dibenzo-alpha-pyrone]", "values": [{"measurement": "peritoneal macrophage viability compared with cyclophosphamide treated mice", "setting": "[1]; [7]", "value": "significantly (p<0.05, p<0.01) increased"}, {"measurement": "% Viability Day 7, peritoneal macrophage viability", "setting": "[1]; [8]", "value": "65.78 ± 2.38** %"}, {"measurement": "% Viability Day 7, peritoneal macrophage viability", "setting": "[1]; [9]", "value": "75.27 ± 0.53^# %"}, {"measurement": "peritoneal macrophage viability compared with cyclophosphamide treated mice", "setting": "[1]; [10]", "value": "significantly (p<0.05, p<0.01) increased"}, {"measurement": "% Viability Day 7, peritoneal macrophage viability", "setting": "[1]; [11]", "value": "60.34 ± 1.84", "unit": "%"}, {"measurement": "% Viability Day 7, peritoneal macrophage viability", "setting": "[1]; [12]", "value": "70.91 ± 1.24# %"}, {"measurement": "peritoneal macrophage viability compared with vehicle control", "setting": "[1]; male mice, cyclophosphamide, 3-OH-DBP 2 mg/kg, 3,8-(OH)2-DBP 10 mg/kg", "value": "significantly (p<0.05) decreased"}, {"measurement": "body weight Day 7 in comparison to Day 0", "setting": "[2]", "value": "significantly (p<0.05) decreased"}, {"measurement": "feed intake Day 7 in comparison to Day 0", "setting": "[2]", "value": "significantly (p<0.05, p<0.01) decreased"}, {"measurement": "feed intake compared to vehicle control", "setting": "[2]", "value": "significantly (p<0.05, p<0.01) decreased"}, {"measurement": "water intake compared with cyclophosphamide treated mice", "setting": "[2]", "value": "significantly (p<0.001) decreased"}, {"measurement": "water intake compared with vehicle control", "setting": "[2]", "value": "significantly (p<0.001) decreased"}, {"measurement": "water intake compared with vehicle control and cyclophosphamide treated mice", "setting": "[2]", "value": "significantly (p<0.05, p<0.001) decreased"}, {"measurement": "% Cell Viability of splenocytes", "setting": "[3]", "value": "54.90 ± 5.01", "unit": "%"}, {"measurement": "NBT reduction compared with cyclophosphamide treated mice", "setting": "[4]; female mice, 3-OH-DBP 10 mg/kg", "value": "significantly (p<0.05, p<0.01, p<0.001) increased"}, {"measurement": "O.D. (515 nm) Day 7, NBT reduction of peritoneal macrophages", "setting": "[4]; [8]", "value": "0.159 ± 0.02***"}, {"measurement": "O.D. (515 nm) Day 7, NBT reduction of peritoneal macrophages", "setting": "[4]; [9]", "value": "0.294 ± 0.008*,###"}, {"measurement": "NBT reduction compared with vehicle control", "setting": "[4]; female mice, 3,8-(OH)2-DBP 10 and 50 mg/kg", "value": "significantly (p<0.05, p<0.01, p<0.001) decreased"}, {"measurement": "NBT reduction compared with cyclophosphamide treated mice", "setting": "[4]; male mice, NBT reduction capacity increased", "value": "significantly (p<0.05, p<0.01, p<0.001) reversed"}, {"measurement": "O.D (515 nm) Day 7, NBT reduction of peritoneal macrophages", "setting": "[4]; [11]", "value": "0.294 ± 0.04499***"}, {"measurement": "O.D (515 nm) Day 7, NBT reduction of peritoneal macrophages", "setting": "[4]; [12]", "value": "0.476 ± 0.07172##"}, {"measurement": "NBT reduction compared with vehicle control", "setting": "[4]; male mice, 3,8-(OH)2-DBP 10 mg/kg", "value": "significantly (p<0.01, p<0.001) decreased"}, {"measurement": "OD (515 nm), NBT reduction assay in peritoneal macrophages", "setting": "[5]", "value": "0.144 ± 0.010^"}, {"measurement": "splenocyte viability compared with cyclophosphamide treated mice", "setting": "[6]; [7]", "value": "significantly (p<0.05, p<0.01, p<0.001) increased"}, {"measurement": "% Viability Day7, splenocyte viability", "setting": "[6]; [8]", "value": "89.50 ± 2.30# %"}, {"measurement": "% Viability Day7, splenocyte viability", "setting": "[6]; [9]", "value": "90.87 ± 1.98## %"}, {"measurement": "restoration of splenocyte viability", "setting": "[6]; male mice, 50 mg/kg 3,8-(OH)2-DBP (Group VII), 60 mg/kg DBP combination (Group VIII)", "value": "restored"}, {"measurement": "splenocyte viability compared with cyclophosphamide treated mice", "setting": "[6]; [10]", "value": "significantly higher"}, {"measurement": "% Viability Day7, splenocyte viability", "setting": "[6]; [11]", "value": "68.69 ± 2.21*** %"}, {"measurement": "% Viability Day7, splenocyte viability", "setting": "[6]; [12]", "value": "90.14 ± 0.36## %"}, {"measurement": "splenocyte viability compared with vehicle control", "setting": "[6]; male mice, cyclophosphamide, 2 mg/kg 3-OH-DBP, 10 mg/kg 3,8-(OH)2-DBP, 12 mg/kg combined", "value": "similarly decreased"}]}]}
